Source: patent publication US20240139170A1, “TOPICAL FORMULATIONS OF A JAK 1/3 INHIBITOR AND METHODS OF USE THEREOF FOR TREATMENT OF ATOPIC DERMATITIS AND OTHER SKIN CONDITIONS” (ACLARIS THERAPEUTICS, INC., priority 2021, published 2024)
Several values for one entry are separate records, joined by “and”; a condition that tells them apart may be missing. Equal entries are not always repeated. Entries after “also recorded” stand apart in the source; their conditions may differ.

How the values were obtained:
[1] = Phase 2a study, plasma pharmacokinetics; format: in vivo, human
[2] = in vivo
[3] = system: moderate or severe atopic dermatitis; experiment: Phase 2a study, efficacy (EASI/mEASI, PP-NRS); format: in vivo, human
Source text: (§1) PK blood draws assessed systemic exposure.
Fifty (50) subjects, aged 18-65 years, male and female were selected to use either a topical formulation comprising 2% w/w Compound I or a placebo. Pertinent inclusion criteria for the study included: (i) a diagnosis of atopic dermatitis (AD) fulfilled the specified diagnostic criteria of Hanifin and Rajka (Hanifin J M, Rajka G. Diagnostic features of atopic dermatitis. Acta Derm Venereol. Suppl 1980; 92: 44-7, which is hereby incorporated by reference in its entirety); (ii) a 6-month history of AD; (iii) no significant AD flares for 4 weeks prior; (iv) at least 1 lesion measuring […], but not located on the hands, feet, or genitalia; (v) a stable diagnosis of moderate or severe (Investigator's Global Assessment (IGA) score of 3 or 4); (vi) Eczema Area and Severity Index (EASI) score of ≤48; and (vii) have AD affecting 3% to 20% of Body Surface Area (BSA) (not including head, […], soles of feet, groin, and genitalia).
The 50 subjects were randomized into 2% Compound I treatment (n=23) and vehicle treatment (n=25) groups. Two of the subjects were randomized but not treated. Of the allocated subjects, 91% (n=21) of the Compound I treatment group and 72% (n=18) completed the study. The demographics and baseline characteristics of the study subjects is provided below in Table 3.
(§2) The topical formulation was applied topically twice per day, approximately 8 to 12 hours apart. Up to 8 mL, 1 mL at a time, is applied to an identified AD target area of the subject and rubbed into said area by the subject to achieve a thin film on the skin. Less than 8 mL may be used if less is required to fully cover the identified AD target area. Subjects document symptoms of AD, such as itching, on a daily basis. Subjects were asked to abstain from washing the treated area within 6 hours after application, minimize sun exposure, refrain from using moisturizers, emollients, and sunscreen on the treatment areas, and refrain from activities that would cause profuse sweating (e.g., exercise) for a period of 6 hours after each application. The study ran 4 weeks. On days 1, 8, and 15, a pharmacokinetic sample (e.g., blood) was collected from each subject about 2 hours after application of the topical formulation. On day 28, the following pharmacokinetic samples were collected: • Subgroup 1: One sample before application and one sample at 0.5 to 2.5 hours post application • Subgroup 2: One sample at 2.5 to 5 hours post application and one sample at least 2 hours later • Subgroup 3: One sample at 5 to 8 hours post application and one sample at least 2 hours later (prior to the subsequent application)
On each of these days 1, 8, 15, and 28, symptoms of AD in each subject were evaluated by EASI score, IGA, PP-NRS, and BSA. Primary efficacy of treatment was measured by a percent change from baseline EASI (EASI at day 1) to EASI at day 28.
Further measurements of efficacy included percent change in EASI between each of days 1, 8, 15, and 28 as well as change from baseline and/or prior evaluation of IGA, AD BSA, and PP-NRS on days 8, 15, and 28; percent of subjects achieving IGA scores of 0 to 1 combined with an improvement of 2 or more points from baseline by day 28; proportion of subjects who achieve 50%, 75%, and 90% improvement in EASI score (compared to baseline).
The primary efficacy endpoint of this trial was the percent change from baseline in the Eczema Area and Severity Index (EASI) score at week 4.

[4] = Phase 2a study, plasma pharmacokinetics; format: in vivo, human; remark: listed apart in the source
Method: as §1, §2

[5] = Phase 2a study, safety (adverse events); conditions: for Candida infection: patients with at least one event: BID, N = 23

CCOC(=O)c1cnc2[nH]ccc2c1N[C@@H]1CCCN(C(=O)CC#N)C1 [Compound I, ethyl (R)-4-((1-(2-cyanoacetyl)piperidin-3-yl)amino)-1H-pyrrolo[2,3-b]pyridine-5-carboxylate]
Plasma Compound I CONC ([1]; subject 004-0002, Day 8, hour 0 Predose): 0.188 ng/mL
Plasma Compound I CONC ([1]; subject 004-0002, Day 15, hour 0 Predose): 0.100 ng/mL
Plasma Compound I CONC ([1]; subject 004-0004, Day 15, hour 0 Predose, LLOQ 0.100): <LLOQ
Plasma Compound I CONC ([1]; subject 004-0008, Day 1, hour 0 Predose, LLOQ 0.100): <LLOQ
Plasma Compound I CONC ([1]; subject 012-0001, Day 8, hour 0 Predose): 1.43 ng/mL
Plasma Compound I CONC ([1]; subject 13-0001, Day 15, hour 0 Predose): 0.598 ng/mL
Application site irritation: patients with at least one event ([2]; human): 0
Oropharyngeal pain: patients with at least one event ([2]; human): 0
Pharyngitis streptococcal: patients with at least one event ([2]; human): 0
Rash: patients with at least one event ([2]; human): 0
SARS-CoV-2 test positive: patients with at least one event ([2]; human): 0
Sinus congestion: patients with at least one event ([2]; human): 0
Skin fragility: patients with at least one event ([2]; human): 0
Somnolence: patients with at least one event ([2]; human): 0
COVID-19: patients with at least one event ([2]; human, 4 weeks): 0
Related TEAE, last figure of the cell (number of events) ([2]; human, 4 weeks): 1
Severe TEAE, last figure of the cell (number of events) ([2]; human, 4 weeks): 2
Subjects reporting AEs ([2]; human, 4 weeks): 9/23
Subjects with at least one SAE ([2]; human, 4 weeks): 0
Subjects with at least one TEAE leading to discontinuation of study drug ([2]; human, 4 weeks): 0
Subjects with at least one TEAE, number (percent) ([2]; human, 4 weeks): 9 (39.1)
Subjects with at least one related TEAE, number (percent) ([2]; human, 4 weeks): 1 (4.3)
Subjects with at least one severe TEAE, number (percent) ([2]; human, 4 weeks): 2 (8.7)
TEAE, last figure of the cell (number of events, agrees with Table 7) ([2]; human, 4 weeks): 16
Severe adverse events [2]: Two unrelated severe events (AF and elevated CPK)
Thrombosis [2]: no reports of thrombosis
Tolerability [2]: generally well tolerated
Mean decrease in PP-NRS score relative to baseline ([3]; after one week, 2% BID): 1.72
Patients achieving 50% improvement in EASI score (EASI 50) ([3]; end of week 1 (day 8), 2% BID): 34.8%
Patients achieving 75% improvement in EASI score (EASI 75) ([3]; end of week 1 (day 8), 2% BID): 13.0%
Patients achieving 90% improvement in EASI score (EASI 90) ([3]; end of week 1 (day 8), 2% BID): 4.3%
Patients achieving 50% improvement in EASI score (EASI 50) ([3]; end of week 2 (day 15), 2% BID): 69.6%
Patients achieving 75% improvement in EASI score (EASI 75) ([3]; end of week 2 (day 15), 2% BID): 21.7%
Patients achieving 90% improvement in EASI score (EASI 90) ([3]; end of week 2 (day 15), 2% BID): 8.7%
Patients achieving 50% improvement in EASI score (EASI 50) ([3]; end of week 4 (day 28), 2% BID): 91.3%
Patients achieving 75% improvement in EASI score (EASI 75) ([3]; end of week 4 (day 28), 2% BID): 65.2%
Patients achieving 90% improvement in EASI score (EASI 90) ([3]; end of week 4 (day 28), 2% BID): 30.4%
Reduction in mean mEASI score from baseline ([3]; week 4 (day 28), 2.0% topical solution BID, FAS N=23, primary endpoint): 74.4% and 74.5%
Mean drug levels in plasma relative to IC50 ([4]; 2% BID topical, 4 weeks): ≤ 5 % of the IC50
Plasma samples with Compound I levels below the lower limit of quantitation of 0.1 ng/mL ([4]; 4-week topical treatment, 2% BID): Greater than 86%
Plasma samples with concentration of the active compound below 1 ng/ml ([4]; 4-week topical treatment, treatment arm): greater than 86%
Average plasma concentration ([4]; Day 1, 2 hr post dose): 1.604 ng/mL
Average plasma concentration ([4]; Day 8, 2 hr post dose): 0.519 ng/mL
Average plasma concentration ([4]; Day 28, pre dose): 0.328 ng/mL
All plasma concentrations relative to IC50 ([4]; IC50=36 ng/mL, 2% BID topical): less than half of the IC50
Plasma Compound I CONC ([4]; subject 004-0002, Day 1, hour 0 Predose, LLOQ 0.100): <LLOQ
Plasma Compound I CONC ([4]; subject 004-0002, Day 1, hour 2, LLOQ 0.100): <LLOQ
Plasma Compound I CONC ([4]; subject 004-0002, Day 8, hour 2): 0.229 ng/mL
Plasma Compound I CONC ([4]; subject 004-0002, Day 15, hour 2, LLOQ 0.100): <LLOQ
Plasma Compound I CONC ([4]; subject 004-0002, Day 28/ET, 0.5-2.5 hr): 0.168 ng/mL
Plasma Compound I CONC ([4]; subject 004-0002, Day 28/ET, hour 0 Predose): 0.165 ng/mL
Plasma Compound I CONC ([4]; subject 004-0004, Day 1, hour 0 Predose, LLOQ 0.100): <LLOQ
Plasma Compound I CONC ([4]; subject 004-0004, Day 1, hour 2, LLOQ 0.100): <LLOQ
Plasma Compound I CONC ([4]; subject 004-0004, Day 8, hour 0 Predose, LLOQ 0.100): <LLOQ
Plasma Compound I CONC ([4]; subject 004-0004, Day 8, hour 2, LLOQ 0.100): <LLOQ
Plasma Compound I CONC ([4]; subject 004-0004, Day 15, hour 2, LLOQ 0.100): <LLOQ
Plasma Compound I CONC ([4]; subject 004-0004, Day 28/ET, 5-8 hr, LLOQ 0.100): <LLOQ
Plasma Compound I CONC ([4]; subject 004-0004, Day 28/ET, 7-10 hr): 0.104 ng/mL
Plasma Compound I CONC ([4]; subject 004-0008, Day 1, hour 2): 1.62 ng/mL
Plasma Compound I CONC ([4]; subject 004-0008, Day 8, hour 0 Predose): 0.616 ng/mL
Plasma Compound I CONC ([4]; subject 004-0008, Day 8, hour 2): 0.639 ng/mL
Plasma Compound I CONC ([4]; subject 004-0008, Day 15, hour 0 Predose): 0.740 ng/mL
Plasma Compound I CONC ([4]; subject 004-0008, Day 15, hour 2): 0.512 ng/mL
Plasma Compound I CONC ([4]; subject 004-0008, Day 28/ET, 2.5-5 hr): 0.543 ng/mL
Plasma Compound I CONC ([4]; subject 004-0008, Day 28/ET, 4.5-7 hr): 0.441 ng/mL
Plasma Compound I CONC ([4]; subject 012-0001, Day 1, hour 0 Predose, LLOQ 0.100): <LLOQ
Plasma Compound I CONC ([4]; subject 012-0001, Day 1, hour 2): 14.9 ng/mL
Plasma Compound I CONC ([4]; subject 012-0001, Day 8, hour 2): 1.50 ng/mL
Plasma Compound I CONC ([4]; subject 012-0001, Day 15, hour 0 Predose): 0.521 ng/mL
Plasma Compound I CONC ([4]; subject 012-0001, Day 15, hour 2): 1.05 ng/mL
Plasma Compound I CONC ([4]; subject 012-0001, Day 28/ET, 0.5-2.5 hr): 3.71 ng/mL
Plasma Compound I CONC ([4]; subject 012-0001, Day 28/ET, hour 0 Predose): 1.23 ng/mL
Plasma Compound I CONC ([4]; subject 012-0017, Day 1, hour 0 Predose, LLOQ 0.100): <LLOQ
Plasma Compound I CONC ([4]; subject 012-0017, Day 1, hour 2): 2.45 ng/mL
Plasma Compound I CONC ([4]; subject 012-0017, Day 8, hour 0 Predose): 0.845 ng/mL
Plasma Compound I CONC ([4]; subject 012-0017, Day 8, hour 2): 0.459 ng/mL
Plasma Compound I CONC ([4]; subject 012-0017, Day 15, hour 0 Predose): 11.1 ng/mL
Plasma Compound I CONC ([4]; subject 012-0017, Day 15, hour 2): 5.26 ng/mL
Plasma Compound I CONC ([4]; subject 012-0017, Day 28/ET, 5-8 hr): 0.536 ng/mL
Plasma Compound I CONC ([4]; subject 012-0017, Day 28/ET, 7-10 hr): 0.704 ng/mL
Plasma Compound I CONC ([4]; subject 13-0001, Day 1, hour 0 Predose, LLOQ 0.100): <LLOQ
Plasma Compound I CONC ([4]; subject 13-0001, Day 1, hour 2): 12.9 ng/mL
Plasma Compound I CONC ([4]; subject 13-0001, Day 8, hour 0 Predose): 0.914 ng/mL
Plasma Compound I CONC ([4]; subject 13-0001, Day 8, hour 2): 1.79 ng/mL
Plasma Compound I CONC ([4]; subject 13-0001, Day 15, hour 2): 1.86 ng/mL
Plasma Compound I CONC ([4]; subject 13-0001, Day 28/ET, 0.5-2.5 hr): 3.99 ng/mL
Plasma Compound I CONC ([4]; subject 13-0001, Day 28/ET, hour 0 Predose): 0.530 ng/mL
Highest plasma concentration in any subject ([4]; whole study): ≤ 15 ng/mL
Samples with plasma concentrations > 1/10th the IC50 ([4]; whole study): 6 total samples
Subjects with plasma concentrations > 1/10th the IC50 ([4]; whole study): 3 subjects
Deaths / serious adverse events ([5]; 4 weeks BID): No deaths or SAEs were reported; also recorded: No serious adverse events were reported
Candida infection: patients with at least one event ([5]; Mild): 0
Candida infection: patients with at least one event ([5]; Moderate): 1 (4.3)
Candida infection: patients with at least one event ([5]; Severe): 0
